Values belong to the molecule of their own block, whether it stands above or below them.
Assays:
Type in all cases: physicochemical
[1] = Drug stability test (Test Example 5, FIG. 4): loxoprofen sodium or felbinac in lactic acid with NMP; settings: 0.1 g drug in 5 g lactic acid with 1 g or 10 g NMP; autoclaving 120° C.
Protocol: By a similar procedure to Test Example 3 except that either 1 g or 10 g of N-methyl-2-pyrrolidone was further mixed with a mixed solution of 0.1 g of loxoprofen sodium or felbinac and 5 g of lactic acid, the mass of the drug being present in each solvent system was measured.

[2] = Drug solubility test (Test Example 1): amount of LOX dissolved in 1 g of additive, visual observation
Protocol: The amount of dissolution of loxoprofen sodium (LOX) with respect to 1 g of each additive was determined by visual observation.

[3] = Drug stability test (Test Example 2): loxoprofen sodium in solvent systems left at 60° C., HPLC; settings: for Loxoprofen sodium content (%) (vs. initial value): 60° C.
Protocol: To each solvent was added 0.1 g of loxoprofen sodium, and the mixture was stirred at 25° C. overnight. The stirred mixture was filtrated to obtain a filtrate for use as a sample solution, and this sample solution was left to stand at 60° C. Thereafter, the mass of loxoprofen sodium being present in each solvent system was measured with high performance liquid chromatography (HPLC) 0 months later (initial value), 0.5 months later, and 1.0 month later. The results are shown in FIG. 1 and Table 2 in terms of the ratio of each measurement with respect to the initial value.

[4] = Drug stability test (Test Example 3): loxoprofen sodium in solvent systems, autoclaving at 120° C.; settings: for Loxoprofen sodium content (%) (vs. initial value): autoclaving 120° C.
Protocol: To each solvent was added 0.1 g of loxoprofen sodium, and the mixture was stirred at 25° C. overnight. The stirred mixture was filtrated to obtain a filtrate for use as a sample solution. This sample solution was subjected to an autoclaving treatment at 120° C., and the mass of loxoprofen sodium being present in each solvent system was measured at time 0 (initial value), 2 hrs later, 4 hrs later, and 6 hrs later. The results are shown in FIG. 2 and Table 3 in terms of the ratio of each measurement with respect to the initial value. The measurement procedure was similar to Test Example 2.

[5] = Drug stability test (Test Example 4, FIG. 3): loxoprofen/lactic acid with additives, with or without NMP; settings: for stability of LOX (in words): NMP added to LOX
Protocol: By a similar procedure to Test Example 3 except that 1 g of an additive (aspartic acid, isostearic acid, disodium edetate, a carboxyvinyl polymer or polyvinylpyrrolidone) was added to a mixed solution of 0.1 g of loxoprofen and 5 g of lactic acid, the mass of loxoprofen sodium being present in each solvent system was measured.
In addition, by a similar procedure to Test Example 3 except that 1 g of N-methyl-2-pyrrolidone, and 1 g of an additive (aspartic acid, isostearic acid, disodium edetate, the carboxyvinyl polymer or polyvinylpyrrolidone) were further mixed, the mass of loxoprofen sodium being present in each solvent system was measured. The results are shown in FIG. 3 in terms of the ratio of each measurement with respect to the initial value.

[6] = Drug stability test (Test Example 6, FIG. 5): diclofenac sodium in lactic acid or glycerin with NMP; settings: autoclaving 120° C.
Protocol: By a similar procedure to Test Example 5 except that a mixed solution of 0.1 g of diclofenac sodium and 5 g of lactic acid or glycerin was used, the mass of the drug being present in each solvent system was measured.

[7] = Drug stability test (Test Example 7, FIG. 6): tulobuterol in acetic acid with NMP; settings: 0.1 g drug in 5 g acetic acid with 1 g or 10 g NMP; autoclaving 120° C.
Protocol: By a similar procedure to Test Example 5 except that a mixed solution of 0.1 g of tulobuterol and 5 g of acetic acid was used, the mass of the drug being present in each solvent system was measured.

- stability of the drug (FIG. 4, in words) [1]: significantly improved
Structure (SMILES): O=C(O)Cc1ccc(-c2ccccc2)cc1 [felbinac]

- amount of dissolution of loxoprofen sodium (in words) ([2]; lactic acid and N-methyl-2-pyrrolidone used in combination): markedly great
- amount of dissolution of loxoprofen sodium (in words) ([2]; lactic acid or N-methyl-2-pyrrolidone used alone, or other composition): significantly small
- Amount of dissolved LOX ([2]; per 1 g of additive: 10% Citric anhydride + NMP, mixing ratio 1:10): 0.1 g
- Amount of dissolved LOX ([2]; per 1 g of additive: 20% Citric anhydride + NMP, mixing ratio 1:5): 0.1 g
- Amount of dissolved LOX ([2]; per 1 g of additive: 89% Phosphoric acid): 0.25 g
- Amount of dissolved LOX ([2]; per 1 g of additive: Behenic acid + NMP, mixing ratio 1:1): 0 g
- Amount of dissolved LOX ([2]; per 1 g of additive: Cetyl lactate + NMP, mixing ratio 1:4): 0 g
- Amount of dissolved LOX ([2]; per 1 g of additive: Crotamiton): 0 g
- Amount of dissolved LOX ([2]; per 1 g of additive: Isostearic acid + NMP, mixing ratio 1:1): 0 g
- Amount of dissolved LOX ([2]; per 1 g of additive: L-menthol + NMP, mixing ratio 1:1): 0 g
- Amount of dissolved LOX ([2]; per 1 g of additive: Lactic acid): 0.25 g
- Amount of dissolved LOX ([2]; per 1 g of additive: Lactic acid + NMP, mixing ratio 1:2): 1.5 g
- Amount of dissolved LOX ([2]; per 1 g of additive: Malic acid + NMP, mixing ratio 1:4): 0 g
- Amount of dissolved LOX ([2]; per 1 g of additive: Myristic acid + NMP, mixing ratio 1:10): 0 g
- Amount of dissolved LOX ([2]; per 1 g of additive: NMP): 0 g
- Amount of dissolved LOX ([2]; per 1 g of additive: Oleyl alcohol): 0 g
- Amount of dissolved LOX ([2]; per 1 g of additive: Peppermint oil): 0 g
- Amount of dissolved LOX ([2]; per 1 g of additive: Phosphoric acid (89%) + NMP, mixing ratio 1:2): 0 g
- Amount of dissolved LOX ([2]; per 1 g of additive: Polyethylene glycol 400): 0.25 g
- Amount of dissolved LOX ([2]; per 1 g of additive: Stearic acid + NMP, mixing ratio 1:1): 0 g
- Amount of dissolved LOX ([2]; per 1 g of additive: Tartaric acid + NMP, mixing ratio 1:2): 0 g
- Amount of dissolved LOX ([2]; per 1 g of additive: Triacetin): 0 g
- Loxoprofen sodium content (%) (vs. initial value) ([3]; solvent system Conc. glycerin 5 g, 0.5 months later): 87.2%
- Loxoprofen sodium content (%) (vs. initial value) ([3]; solvent system Conc. glycerin 5 g, 1.0 month later): 82.4%
- Loxoprofen sodium content (%) (vs. initial value) ([3]; solvent system Lactic acid 5 g + NMP0.1 g, 0.5 months later): 88.2%
- Loxoprofen sodium content (%) (vs. initial value) ([3]; solvent system Lactic acid 5 g + NMP0.1 g, 1.0 month later): 82.7%
- Loxoprofen sodium content (%) (vs. initial value) ([3]; solvent system Lactic acid 5 g + NMP1.0 g, 0.5 months later): 91.3%
- Loxoprofen sodium content (%) (vs. initial value) ([3]; solvent system Lactic acid 5 g + NMP1.0 g, 1.0 month later): 85.8%
- Loxoprofen sodium content (%) (vs. initial value) ([3]; solvent system Lactic acid 5 g + NMP10.0 g, 0.5 months later): 99.8%
- Loxoprofen sodium content (%) (vs. initial value) ([3]; solvent system Lactic acid 5 g + NMP10.0 g, 1.0 month later): 99.4%
- Loxoprofen sodium content (%) (vs. initial value) ([3]; solvent system Lactic acid 5 g, 0.5 months later): 83.1%
- Loxoprofen sodium content (%) (vs. initial value) ([3]; solvent system Lactic acid 5 g, 1.0 month later): 79.9%
- Loxoprofen sodium content (%) (vs. initial value) ([3]; solvent system Peppermint oil 5 g, 0.5 months later): 83.2%
- Loxoprofen sodium content (%) (vs. initial value) ([3]; solvent system Peppermint oil 5 g, 1.0 month later): 77.7%
- time dependent lowering of the content of loxoprofen sodium (in words) ([3]; solvent system of conc. glycerin, “polysorbate 80”, mentha oil or lactic acid): greatly exhibited
- Loxoprofen sodium content (%) (vs. initial value) ([3]; solvent system “Polysorbate 80 g” 5 g, 0.5 months later): 83.5%
- Loxoprofen sodium content (%) (vs. initial value) ([3]; solvent system “Polysorbate 80 g” 5 g, 1.0 month later): 69.1%
- Loxoprofen sodium content (%) (vs. initial value) ([4]; solvent system Lactic acid 5 g + NMP0.1 g, 2 hrs): 96.0%
- Loxoprofen sodium content (%) (vs. initial value) ([4]; solvent system Lactic acid 5 g + NMP0.1 g, 4 hrs): 90.7%
- Loxoprofen sodium content (%) (vs. initial value) ([4]; solvent system Lactic acid 5 g + NMP0.1 g, 6 hrs): 87.4%
- Loxoprofen sodium content (%) (vs. initial value) ([4]; solvent system Lactic acid 5 g + NMP1.0 g, 2 hrs): 98.0%
- Loxoprofen sodium content (%) (vs. initial value) ([4]; solvent system Lactic acid 5 g + NMP1.0 g, 4 hrs): 94.2%
- Loxoprofen sodium content (%) (vs. initial value) ([4]; solvent system Lactic acid 5 g + NMP1.0 g, 6 hrs): 91.9%
- Loxoprofen sodium content (%) (vs. initial value) ([4]; solvent system Lactic acid 5 g + NMP10.0 g, 2 hrs): 99.4%
- Loxoprofen sodium content (%) (vs. initial value) ([4]; solvent system Lactic acid 5 g + NMP10.0 g, 4 hrs): 99.8%
- Loxoprofen sodium content (%) (vs. initial value) ([4]; solvent system Lactic acid 5 g + NMP10.0 g, 6 hrs): 99.6%
- Loxoprofen sodium content (%) (vs. initial value) ([4]; solvent system Lactic acid 5 g, 2 hrs): 94.8%
- Loxoprofen sodium content (%) (vs. initial value) ([4]; solvent system Lactic acid 5 g, 4 hrs): 90.3%
- Loxoprofen sodium content (%) (vs. initial value) ([4]; solvent system Lactic acid 5 g, 6 hrs): 86.8%
- time dependent lowering of the content of loxoprofen sodium (in words) ([4]; solvent system including lactic acid and N-methyl-2-pyrrolidone (Tables 2 to 3, FIGS. 1 to 2)): markedly suppressed
- stability of LOX (in words) ([5]; lactic acid and adipic acid): favorable stability
- stability of LOX (in words) ([5]; lactic acid and benzoic acid): favorable stability
- stability of the drug (FIG. 4, in words) [1]: significantly improved
Structure (SMILES): CC(C(=O)O)c1ccc(CC2CCCC2=O)cc1 (centres unmarked) [LOX, loxoprofen sodium]
- content of LOX versus control group without the additive (FIG. 3) ([5]; lactic acid 5 g + 1 g additive having a carboxylic acid group (aspartic acid, isostearic acid, disodium edetate, carboxyvinyl polymer), irrespective of the presence of NMP, 120° C.): almost a similar level to the LOX content in the control group
- content of LOX versus control group (FIG. 3) ([5]; lactic acid 5 g + 1 g polyvinylpyrrolidone, irrespective of the presence of NMP, 120° C.): increased to a level higher than the content of LOX in the control group

- reduction of stability caused by blending glycerin, effect of adding NMP (FIG. 5) ([6]; 0.1 g drug in 5 g glycerin with 1 g or 10 g NMP): compensated
- reduction of stability caused by blending lactic acid, effect of adding NMP (FIG. 5) ([6]; 0.1 g drug in 5 g lactic acid with 1 g or 10 g NMP): greatly compensated
Structure (SMILES): O=C(O)Cc1ccccc1Nc1c(Cl)cccc1Cl [diclofenac sodium]

- stability of the drug (FIG. 6, in words) [7]: greatly improves
Structure (SMILES): CC(C)(C)NCC(O)c1ccccc1Cl (centres unmarked) [tulobuterol]
